# Measured values published in patent US20210400967A1, “COMPOSITIONS COMPRISING PYRIDINE CARBOXYLATE HERBICIDES WITH GLYPHOSATE OR GLUFOSINATE” (Corteva Agriscience LLC, priority 2018, published 2021).
# Tests used:
# Type in all cases: in vivo
# [1] = test system: Brassica napus (winter rape); experiment: Greenhouse postemergence herbicidal effect, winter rape (BRSNW); settings: Example 6; Glufosinate 112.5 g ai/ha alone; 20-22 d
# Source text: (§1) Greenhouse Trial Methodology—Evaluation of Postemergence Herbicidal Effect
# (§2) Seeds of the desired test plant species were planted in a 90:10% v/v (volume/volume) mixture of PRO-MIX® BX (Premier Tech Horticulture, Quakertown, Pa., USA) and PROFILE® GREENS GRADE™ (Profile Products LLC, Buffalo Grove, Ill., USA) planting mixture, which typically has a pH of 5.2 to 6.2 and an organic matter content of at least 50 percent, in plastic pots with a surface area of 103.2 square centimeters (cm^2). In some aspects, to ensure good germination and healthy plants, a fungicide treatment and/or other chemical or physical treatment was applied. The plants were grown for 7-36 days (d) in a greenhouse with an approximate 14-hour (h) photo-period which was maintained at about 23° C. during the day and 22° C. during the night. Nutrients and water were added on a regular basis and supplemental lighting was provided with overhead metal halide 1000-Watt lamps as necessary. The plants were employed for testing when they reached the second or third true leaf stage.
# (§3) Emulsifiable concentrates of each of each pyridine carboxylate herbicide (Compound A or Compound B) were prepared at 100 grams acid equivalent per liter (g ae/L). The emulsifiable concentrates also included a safener, cloquintocet-mexyl, at 120 grams active ingredient per liter (g ai/L). An aliquot of each emulsifiable concentrate was placed in a 25 mL glass vial and diluted with an aqueous mixture of 1.25% (v/v) ACTIROB® B esterified rapeseed oil (Bayer Crop Science, Research Triangle Park, N.C., USA) or MSO® Concentrate with LECI-TECH® methylated soybean oil (Loveland Products, Loveland, Colo., USA) to obtain concentrated stock solutions at the highest application rate for each herbicide, based upon a 12 milliliter (mL) application volume at a rate of 187 liters per hectare (L/ha). The concentrated stock solutions were further diluted with an aqueous mixture of 1.25% v/v ACTIROB® B or MSO® Concentrate with LECI-TECH® to obtain stock solutions at reduced application rates for each herbicide. Spray solutions of the herbicide combinations (Compound A or Compound B plus glyphosate or glufosinate) were prepared by adding weighed amounts or aliquots of the glyphosate or glufosinate to the stock solutions of Compound A or Compound B to form 12-mL spray solutions in two-way combinations.
# (§4) The spray solutions were applied to the plant material with an overhead Mandel track sprayer equipped with 8002E nozzles calibrated to deliver 187 L/ha over an application area of 0.503 square meters (m^2) at a spray height of 18 inches (43 centimeters (cm)) above the average plant canopy. Control plants were sprayed in the same manner with the solvent blank. All pyridine carboxylate herbicide (component a) application rates are given as “g ae/ha” and all glyphosate or glufosinate (component b) application rates are given as “g ai/ha.”
# (§5) The treated plants and control plants were placed in a greenhouse as described above and watered by sub-irrigation to prevent wash-off of the test compounds. After 20-22 d, the condition of the test plants as compared with that of the control plants was determined visually and scored on a scale of 0 to 100 percent where 0 corresponds to no injury and 100 corresponds to complete kill.
# [2] = test system: Abutilon theophrasti (velvetleaf); experiment: Greenhouse postemergence herbicidal effect, velvetleaf (ABUTH); settings: Example 4; Glufosinate 112.5 g ai/ha alone; 20-22 d
# Source text: as §1, §2
# (§6) Emulsifiable concentrates of each of each pyridine carboxylate herbicide (Compound A or Compound B) were prepared at 100 grams acid equivalent per liter (g ae/L). The emulsifiable concentrates also included a safener, cloquintocet-mexyl, at 120 grams active ingredient per liter (g ai/L). […]
# as §5
# [3] = test system: Viola tricolor (wild pansy); experiment: Greenhouse postemergence herbicidal effect, wild pansy (VIOTR); settings: 20-22 d
# Source text: as §1, §2, §3, §4, §5
# [4] = test system: Euphorbia heterophylla (poinsettia); experiment: Greenhouse postemergence herbicidal effect, poinsettia (EPHHL); settings: Example 5; Glufosinate 70 g ai/ha alone; 20-22 d
# Source text: as §1, §2, §6, §5
# [5] = test system: Brassica napus (spring rape); experiment: Greenhouse postemergence herbicidal effect, spring rape (BRSNN); settings: Example 4; Glufosinate 112.5 g ai/ha alone; 20-22 d
# Source text: as §1, §2, §3, §4, §5
# [6] = test system: Kochia scoparia (kochia); experiment: Greenhouse postemergence herbicidal effect, kochia (KCHSC); settings: 20-22 d
# Source text: as §1, §2, §3, §4, §5
# [7] = test system: Rumex obtusifolius (broad-leaf dock); experiment: Greenhouse postemergence herbicidal effect, broad-leaf dock (RUMOB); settings: Example 5; Glufosinate 70 g ai/ha alone; 20-22 d
# Source text: as §1, §2, §6, §5
# [8] = test system: Polygonum convolvulus (wild buckwheat); experiment: Greenhouse postemergence herbicidal effect, wild buckwheat (POLCO); settings: 20-22 d
# Source text: as §1, §2, §3, §4, §5
# [9] = test system: Cirsium arvense (Canadian thistle); experiment: Greenhouse postemergence herbicidal effect, Canadian thistle (CIRAR); settings: 20-22 d
# Source text: as §1, §2, §3, §4, §5
# [10] = test system: Amaranthus retroflexus (pigweed); experiment: Greenhouse postemergence herbicidal effect, pigweed (AMARE); settings: Example 6; Glufosinate 112.5 g ai/ha alone; 20-22 d
# Source text: as §1, §2, §3, §4, §5
# [11] = test system: Matricaria chamomilla (wild chamomile); experiment: Greenhouse postemergence herbicidal effect, wild chamomile (MATCH); settings: Example 6; Glufosinate 112.5 g ai/ha alone; 20-22 d
# Source text: as §1, §2, §3, §4, §5
# [12] = test system: Chenopodium album L. (common lambsquarters); experiment: Greenhouse postemergence herbicidal effect, common lambsquarters (CHEAL); settings: Glufosinate 112.5 g ai/ha alone, 20-22 d
# Source text: as §1, §2, §3, §4, §5
# [13] = test system: Cyperus esculentus (nutsedge); experiment: Greenhouse postemergence herbicidal effect, nutsedge (CYPES); settings: Example 5; Glufosinate 70 g ai/ha alone; 20-22 d
# Source text: as §1, §2, §6, §5
# [14] = test system: Stellaria media (chickweed); experiment: Greenhouse postemergence herbicidal effect, chickweed (STEME); settings: Example 5; Glufosinate 70 g ai/ha alone; 20-22 d
# Source text: as §1, §2, §6, §5
# [15] = test system: Sinapis arvensis (wild mustard); experiment: Greenhouse postemergence herbicidal effect, wild mustard (SINAR); settings: Example 6; Glufosinate 112.5 g ai/ha alone; 20-22 d
# Source text: as §1, §2, §3, §4, §5
# [16] = test system: Echinochloa crus-galli (barnyardgrass); experiment: Greenhouse postemergence herbicidal effect, barnyardgrass (ECHCG); settings: Example 5; Glufosinate 70 g ai/ha alone; 20-22 d
# Source text: as §1, §2, §6, §5
# [17] = test system: Setaria faberi (giant foxtail); experiment: Greenhouse postemergence herbicidal effect, giant foxtail (SETFA); settings: Example 4; Glufosinate 112.5 g ai/ha alone; 20-22 d
# Source text: as §1, §2, §3, §4, §5
# [18] = test system: Sorghum vulgare (grain sorghum); experiment: Greenhouse postemergence herbicidal effect, grain sorghum (SORVU); settings: Example 5; Glufosinate 70 g ai/ha alone; 20-22 d
# Source text: as §1, §2, §6, §5
# [19] = test system: Helianthus annuus (common sunflower); experiment: Greenhouse postemergence herbicidal effect, common sunflower (HELAN); settings: Example 5; Glufosinate 70 g ai/ha alone; 20-22 d
# Source text: as §1, §2, §6, §5
# [20] = test system: Triticum aestivum (spring wheat); experiment: Greenhouse postemergence phytotoxicity on crop, spring wheat (TRZAS); settings: Example 6; Glufosinate 112.5 g ai/ha alone; 20-22 d
# Source text: as §1, §2, §3, §4, §5
# [21] = test system: Salsola kali (Russian thistle); experiment: Greenhouse postemergence herbicidal effect, Russian thistle (SASKR); settings: Example 6; Glufosinate 112.5 g ai/ha alone; 20-22 d
# Source text: as §1, §2, §3, §4, §5
# [22] = test system: Hordeum vulgare (spring barley); experiment: Greenhouse postemergence phytotoxicity on crop, spring barley (HORVS); settings: Example 6; Glufosinate 112.5 g ai/ha alone; 20-22 d
# Source text: as §1, §2, §3, §4, §5
# [23] = test system: Ipomoea hederacea (ivyleaf morningglory); experiment: Greenhouse postemergence herbicidal effect, ivyleaf morningglory (IPOHE); settings: Example 5; Glufosinate 70 g ai/ha alone; 20-22 d
# Source text: as §1, §2, §6, §5
# [24] = Example 4, Glufosinate 112.5 g ai/ha alone
# [25] = Example 5, Glufosinate 70 g ai/ha alone
# [26] = Example 6, Glufosinate 112.5 g ai/ha alone
compound,measurement,setting,value
"CP(=O)(O)CCC(N)C(=O)O (stereo not shown) [Glufosinate, 2-amino-4-(hydroxy(methyl)phosphinyl)butanoic acid]","% visual injury, Obs",[1],20%
same,"% visual injury, Obs",[2],20%
same,"% visual injury, Obs",[3]; [24],23%
same,"% visual injury, Obs",[3]; [25],20%
same,"% visual injury, Obs",[4],80%
same,"% visual injury, Obs",[5],33%
same,"% visual injury, Obs",[6]; [24],10%
same,"% visual injury, Obs",[6]; [25],15%
same,"% visual injury, Obs",[6]; [26],25%
same,"% visual injury, Obs",[7],73%
same,"% visual injury, Obs",[8]; [24],10%
same,"% visual injury, Obs",[8]; [25],70%
same,"% visual injury, Obs",[8]; [26],15%
same,"% visual injury, Obs",[9]; [24],8%
same,"% visual injury, Obs",[9]; [25],75%
same,"% visual injury, Obs",[9]; [26],73%
same,"% visual injury, Obs",[10],65%
same,"% visual injury, Obs",[11],65%
same,"% visual injury, Obs",[12]; Example 4,5%
same,"% visual injury, Obs",[12]; Example 6,5%
same,"% visual injury, Obs",[13],13%
same,"% visual injury, Obs",[14],68%
same,"% visual injury, Obs",[15],25%
same,"% visual injury, Obs",[16],30%
same,"% visual injury, Obs",[17],33%
same,"% visual injury, Obs",[18],58%
same,"% visual injury, Obs",[19],98%
same,"% visual injury, Obs",[20],35%
same,"% visual injury, Obs",[21],53%
same,"% visual injury, Obs",[22],35%
same,"% visual injury, Obs",[23],82%
